Data taken from patent publication US20020048549A1, “Radioactive transition metal nitride heterocomplex” (priority 1996, published 2002).

How the values were obtained:
serotonin receptor = assay: Regional brain biodistribution of 99mTcN-DESI (Group A vs Group B with unlabeled desipramine); assay type: in vivo, SD rats
Method: The rats were divided into two groups, group A and group B. Into each rat in group A was injected 20 μCi of the ^99mTcN-DESI. Into each rat in group B were injected 20 μCi of the ^99mTcN-DESI and 1.0 mg/kg of unlabeled desipramine at the same time.
SD rats weighing about 250 g were put under intraperitoneal anesthesia with a mixture of xylazine (18 mg/kg) and ketamine (15 mg/kg) and given an injection in the jugular vein. Then, the organs (brain, heart, lung, liver, spleen, kidney, muscle, adrenal, and submaxillary gland) were excised from the rats at different intervals of time, washed and then weighed. In addition, blood samples were collected and then weighed. The data on the biodistribution are expressed as the mean±significant difference of the percentage of radioactivity level per gram of the organ weight based on the dose of radioactivity, (% dose/g). The measurement was carried out using groups of 3 rats each.

[1] = Retention on Sep-Pak C18 reversed phase column (lipophilicity); assay type: physicochemical
From the text: Cation exchange resin: Sep-Pak CM (COONa), illpore, anion exchange resin: Sep-Pak QMA (CONH(CH2)3N(CH3)3^+Cl), Millpore, reversed phase column: Sep-Pak C18, Millpore. The complex was retained in an amount of about 95% in the cation exchange resin, about 60% in the anion exchange resin, or 99.5% in the reversed phase column.

[2] = Group A (complex alone), 30 min
[3] = Group A (complex alone), 60 min
[4] = Group B (with 1.0 mg/kg unlabeled desipramine), 5 min
[5] = Group B (with 1.0 mg/kg unlabeled desipramine), 30 min
[6] = Group B (with 1.0 mg/kg unlabeled desipramine), 60 min

**Q.** For COCCC[P+]1(CCCOC)CCN(CCOC)CC[P+](CCCOC)(CCCOC)[99Tc-2]12(#[N])[NH]C(C(=O)N(C)CCCN1c3ccccc3CCc3ccccc31)C[S]2 (centres unmarked) [^99mTcN-DESI], which Cerebellum % dose/g (serotonin receptor; Group A (complex alone), 5 min) is on record?
**A.** 0.064 ± 0.005 % dose/g

**Q.** What about the Cortex % dose/g (serotonin receptor; Group A (complex alone), 5 min) of the same compound?
**A.** 0.029 ± 0.004 % dose/g

**Q.** What about the Hypothalamus % dose/g (serotonin receptor; Group A (complex alone), 5 min) of the same compound?
**A.** 0.325 ± 0.058 % dose/g

**Q.** What about the Medulla % dose/g (serotonin receptor; Group A (complex alone), 5 min) of the same compound?
**A.** 0.057 ± 0.004 % dose/g

**Q.** What about the Striatum % dose/g (serotonin receptor; Group A (complex alone), 5 min) of the same compound?
**A.** 0.076 ± 0.025 % dose/g

**Q.** What about the Cerebellum % dose/g (serotonin receptor; [2]) of the same compound?
**A.** 0.039 ± 0.015 % dose/g

**Q.** What about the Cortex % dose/g (serotonin receptor; [2]) of the same compound?
**A.** 0.021 ± 0.002 % dose/g

**Q.** And the Hypothalamus % dose/g (serotonin receptor; [2])?
**A.** 0.408 ± 0.085 % dose/g

**Q.** What about the Medulla % dose/g (serotonin receptor; [2]) of the same compound?
**A.** 0.046 ± 0.003 % dose/g

**Q.** And the Striatum % dose/g (serotonin receptor; [2])?
**A.** 0.054 ± 0.017 % dose/g

**Q.** What about the Cerebellum % dose/g (serotonin receptor; [3]) of the same compound?
**A.** 0.028 ± 0.012 % dose/g

**Q.** And the Cortex % dose/g (serotonin receptor; [3])?
**A.** 0.021 ± 0.002 % dose/g

**Q.** What about the Hypothalamus % dose/g (serotonin receptor; [3]) of the same compound?
**A.** 0.364 ± 0.069 % dose/g

**Q.** What about the Medulla % dose/g (serotonin receptor; [3]) of the same compound?
**A.** 0.029 ± 0.006 % dose/g

**Q.** What about the Striatum % dose/g (serotonin receptor; [3]) of the same compound?
**A.** 0.07 ± 0.019 % dose/g

**Q.** What about the Cerebellum % dose/g (serotonin receptor; [4]) of the same compound?
**A.** 0.048 ± 0.008 % dose/g

**Q.** What about the Cortex % dose/g (serotonin receptor; [4]) of the same compound?
**A.** 0.014 ± 0.004 % dose/g

**Q.** And the Hypottalamus % dose/g (serotonin receptor; [4])?
**A.** 0.125 ± 0.029 % dose/g

**Q.** And the Medulla % dose/g (serotonin receptor; [4])?
**A.** 0.038 ± 0.001 % dose/g

**Q.** What about the Striatum % dose/g (serotonin receptor; [4]) of the same compound?
**A.** 0.053 ± 0.001 % dose/g

**Q.** What about the Cerebellum % dose/g (serotonin receptor; [5]) of the same compound?
**A.** 0.035 ± 0.007 % dose/g

**Q.** And the Cortex % dose/g (serotonin receptor; [5])?
**A.** 0.009 ± 0.002 % dose/g

**Q.** What about the Hypottalamus % dose/g (serotonin receptor; [5]) of the same compound?
**A.** 0.162 ± 0.106 % dose/g

**Q.** And the Medulla % dose/g (serotonin receptor; [5])?
**A.** 0.027 ± 0.013 % dose/g

**Q.** What about the Striatum % dose/g (serotonin receptor; [5]) of the same compound?
**A.** 0.023 ± 0.003 % dose/g

**Q.** And the Cerebellum % dose/g (serotonin receptor; [6])?
**A.** 0.031 ± 0.011 % dose/g

**Q.** And the Cortex % dose/g (serotonin receptor; [6])?
**A.** 0.006 ± 0.000 % dose/g

**Q.** And the Hypottalamus % dose/g (serotonin receptor; [6])?
**A.** 0.152 ± 0.033 % dose/g

**Q.** And the Medulla % dose/g (serotonin receptor; [6])?
**A.** 0.016 ± 0.002 % dose/g

**Q.** And the Striatum % dose/g (serotonin receptor; [6])?
**A.** 0.035 ± 0.011 % dose/g

**Q.** What about the accumulation in cortex (serotonin receptor; group A, no unlabeled desipramine) of the same compound?
**A.** specifically accumulated

**Q.** And the accumulation in cortex (serotonin receptor; group B, unlabeled desipramine administered)?
**A.** very small amount

**Q.** What about the “specificity for serotonin receptor” value (serotonin receptor; suggested from group A vs group B cortex accumulation) of the same compound?
**A.** retained specificity for serotonin receptor

**Q.** And the “amount retained in the reversed phase column” value [1]?
**A.** 99.5%

**Q.** And the “lipophilicity suggested by retention in reversed phase column” value [1]?
**A.** high lipophilic
